Source: US5438052A, “Cephalosporin derivatives” (Hoffmann-La Roche Inc., priority 1991, dated 1995)
In brackets after ≈: the same amount, converted by molar mass. Where a name gives a salt, the structure may show the parent alone. Read-outs that look alike come from different tables or passages of the source.

Tests used:
[1] = system: S. pyogenes 15; assay: Minimum inhibitory concentration in vitro, agar dilution method; format: cell-based; conditions: Streptococcus pyogenes
Source text: (§1) 1. Minimum Inhibitory Concentration in vitro
(§2) The activities ascertained, minimum inhibitory concentration (MIC) in μg/ml, are compiled in Table 1 hereinafter: […]

[2] = system: K. pneumoniae 418; assay: as above; format: cell-based; conditions: Klebsiella pneumoniae
Source text: as §1, §2

[3] = system: C. freundii 902; assay: as above; format: cell-based; conditions: Citrobacter freundii
Source text: as §1, §2

[4] = system: P. vulgaris 1028; assay: as above; format: cell-based; conditions: Proteus vulgaris
Source text: as §1, §2

[5] = system: E. aerogenes CF153; assay: as above; format: cell-based; conditions: Klebsiella aerogenes
Source text: as §1, §2

[6] = system: E. coli 25922; assay: as above; format: cell-based; conditions: Escherichia coli
Source text: as §1, §2

[7] = system: P. aeruginosa BA; assay: as above; format: cell-based; conditions: Pseudomonas aeruginosa
Source text: as §1, §2

[8] = system: P. mirabilis 2117; assay: as above; format: cell-based; conditions: Proteus mirabilis
Source text: as §1, §2

[9] = system: E. cloacae P99; assay: as above; format: cell-based; conditions: Enterobacter cloacae
Source text: as §1, §2

[10] = system: S. aureus 6538; assay: as above; format: cell-based; conditions: Staphylococcus aureus
Source text: as §1, §2

[11] = system: S. marcescens 69438; assay: as above; format: cell-based; conditions: Serratia marcescens
Source text: as §1, §2

[12] = system: P. aeruginosa 799/WT; assay: as above; format: cell-based; conditions: Pseudomonas aeruginosa
Source text: as §1, §2

[13] = system: P. aeruginosa 799/61; assay: as above; format: cell-based; conditions: Pseudomonas aeruginosa
Source text: as §1, §2

[14] = system: E. cloacae 908R; assay: as above; format: cell-based; conditions: Enterobacter cloacae
Source text: as §1, §2

[15] = system: P. aeruginosa MK1184; assay: as above; format: cell-based; conditions: Pseudomonas aeruginosa
Source text: as §1, §2

[16] = system: K. oxytoca 1082; assay: as above; format: cell-based; conditions: Klebsiella oxytoca
Source text: as §1, §2

[17] = system: P. aeruginosa 27853; assay: as above; format: cell-based; conditions: Pseudomonas aeruginosa
Source text: as §1, §2

[18] = system: E. cloacae 908SSi; assay: as above; format: cell-based; conditions: Enterobacter cloacae
Source text: as §1, §2

[19] = system: E. coli 25922; assay: Experimental systemic septicaemia in the mouse; format: in vivo; conditions: 96 h
Method in brief: (§3)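 ED50 in mg/kg s.c. is the Probit-derived dose protecting half the mice, judged on survival 4 days after i.p. challenge (about 5-100× 48 h LD50) in 16-20 g albino mice, 5 per group. Dosing was s.c. in 2% Tween 80 at 1 and 3 h, plus 5 h for P. aeruginosa.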

[20] = system: Pseudomonas aeruginosa BA; assay: Experimental systemic septicaemia in the mouse; format: in vivo; conditions: sc, 96 h
Method in brief: as §3

[21] = S. pyogenes 15, agar dilution, read-out: MIC
[22] = K. pneumoniae 418, agar dilution, read-out: MIC
[23] = C. freundii 902, agar dilution, read-out: MIC
[24] = P. vulgaris 1028, agar dilution, read-out: MIC
[25] = E. aerogenes CF153, agar dilution, read-out: MIC
[26] = E. coli 25922, agar dilution, read-out: MIC
[27] = P. aeruginosa BA, agar dilution, read-out: MIC
[28] = P. mirabilis 2117, agar dilution, read-out: MIC
[29] = S. aureus 6538, agar dilution, read-out: MIC
[30] = S. marcescens 69438, agar dilution, read-out: MIC
[31] = P. aeruginosa 799/WT, agar dilution, read-out: MIC
[32] = P. aeruginosa 799/61, agar dilution, read-out: MIC
[33] = E. cloacae 908R, agar dilution, read-out: MIC
[34] = P. aeruginosa MK1184, agar dilution, read-out: MIC
[35] = K. oxytoca 1082, agar dilution, read-out: MIC
[36] = P. aeruginosa 27853, agar dilution, read-out: MIC
[37] = E. cloacae 908SSi, agar dilution, read-out: MIC
[38] = Escherichia coli, sc, E. coli 25922, albino mice, s.c. 1 and 3 hours after infection, survival after 4 days, read-out: ED50
[39] = P. aeruginosa BA, albino mice, s.c. 1, 3 and 5 hours after infection, survival after 4 days, read-out: ED50

SMILES	MIC [1, 21]	MIC [2, 22]	MIC [3, 23]	MIC [4, 24]	MIC [5, 25]	MIC [6, 26]	MIC [7, 27]	MIC [8, 28]	MIC [9]	MIC [10, 29]	MIC [11, 30]	MIC [12, 31]	MIC [13, 32]	MIC [14, 33]	MIC [15, 34]	MIC [16, 35]	MIC [17, 36]	MIC [18, 37]	ED50 [19, 38]	ED50 [20, 39]	other results
Cc1ncc(-c2ccc(O)c(O)c2)c(SCC2=C(C(=O)O)N3C(=O)[C@@H](NC(=O)/C(=N\OC(C)(C)C(=O)NO)c4csc(N)n4)[C@H]3SC2)n1 [Example 19b]	0.25 µg/mL (≈ 0.349 µM)	< 0.1 µg/mL	< 0.1 µg/mL	< 0.1 µg/mL	< 0.1 µg/mL	< 0.1 µg/mL	0.5 µg/mL (≈ 0.698 µM)	0.25 µg/mL (≈ 0.349 µM)	8 µg/mL (≈ 11.2 µM)	16 µg/mL (≈ 22.3 µM)	< 0.1 µg/mL	0.25 µg/mL (≈ 0.349 µM)	< 0.1 µg/mL	2 µg/mL (≈ 2.79 µM)	8 µg/mL (≈ 11.2 µM)	0.5 µg/mL (≈ 0.698 µM)	0.25 µg/mL (≈ 0.349 µM)	2 µg/mL (≈ 2.79 µM)	0.78 mg/kg	> 3 mg/kg	–
Cc1cc(SCC2=C(C(=O)O)N3C(=O)[C@@H](NC(=O)/C(=N\OCc4ccc(O)c(O)c4F)c4csc(N)n4)[C@H]3SC2)n2nc(COC(=O)c3ccc(O)c(O)c3)nc2n1 [Example 9]	1 µg/mL (≈ 1.17 µM)	< 0.1 µg/mL	< 0.1 µg/mL	< 0.1 µg/mL	< 0.1 µg/mL	< 0.1 µg/mL	< 0.1 µg/mL	< 0.1 µg/mL	8 µg/mL (≈ 9.37 µM)	8 µg/mL (≈ 9.37 µM)	< 0.1 µg/mL	–	< 0.1 µg/mL	0.12 µg/mL (≈ 0.141 µM)	< 0.1 µg/mL	< 0.1 µg/mL	< 0.1 µg/mL	4 µg/mL (≈ 4.68 µM)	< 0.05 mg/kg	0.24 mg/kg	–
Nc1nc(/C(=N/OCc2ccc(O)c(O)c2F)C(=O)N[C@@H]2C(=O)N3C(C(=O)O)=C(CSc4nc(-c5ccccc5)ncc4-c4ccc(O)c(O)c4)CS[C@H]23)cs1 [Example 15]	0.12 µg/mL (≈ 0.147 µM)	< 0.1 µg/mL	0.25 µg/mL (≈ 0.306 µM)	0.5 µg/mL (≈ 0.611 µM)	0.12 µg/mL (≈ 0.147 µM)	< 0.1 µg/mL	0.5 µg/mL (≈ 0.611 µM)	0.12 µg/mL (≈ 0.147 µM)	16 µg/mL (≈ 19.6 µM)	32 µg/mL (≈ 39.1 µM)	1 µg/mL (≈ 1.22 µM)	0.5 µg/mL (≈ 0.611 µM)	< 0.1 µg/mL	2 µg/mL (≈ 2.45 µM)	32 µg/mL (≈ 39.1 µM)	0.5 µg/mL (≈ 0.611 µM)	1 µg/mL (≈ 1.22 µM)	16 µg/mL (≈ 19.6 µM)	0.9 mg/kg	> 2 mg/kg	–
Cc1cc(SCC2=C(C(=O)[O-])N3C(=O)[C@@H](NC(=O)/C(=N\OCc4nc(=O)c(O)c[nH]4)c4csc(N)n4)[C@H]3SC2)n2nc(COC(=O)c3ccc(O)c(O)c3)nc2n1.[Na+] [Example 6, (6R,7R)-7-[(Z)-2-(2-amino-4-thiazolyl)-2-[[(1,4-dihydro-5-hydroxy-4-oxo-2-pyrimidinyl)methoxy]imino]acetamido]-3-[[[2-[[(3,4-dihydroxybenzoyl)oxy]methyl]-5-methyl-s-triazolo[1,5-a]pyrimidin-7-yl]thio]methyl]-8-oxo-5-thia-1-azabicyclo[4.2.0]oct-2-ene-2-carboxylic acid sodium salt (1:1)]	–	–	–	–	–	–	–	–	4 µg/mL	–	–	–	–	–	–	–	–	–	–	–	MIC [1]; 15: 2 µg/mL; MIC [2]; 418: < 0.1 µg/mL; MIC [3]; 902: < 0.1 µg/mL; MIC [4]; 1028: < 0.1 µg/mL; MIC ([5]; CF153): < 0.1 µg/mL; MIC [6]; 25922: < 0.1 µg/mL; MIC [7]: < 0.1 µg/mL; MIC [8]; 2117: 0.25 µg/mL; MIC [10]; 6538: 16 µg/mL; MIC [11]; 69438: 0.12 µg/mL; MIC ([12]; 799/WT): < 0.1 µg/mL; MIC ([13]; 799/61): < 0.1 µg/mL; MIC ([14]; 908R): 0.12 µg/mL; MIC ([15]; MK1184): < 0.1 µg/mL; MIC [16]; 1082: 0.12 µg/mL; MIC [17]; 27853: < 0.1 µg/mL; MIC ([18]; 908SSI): 4 µg/mL; ED50 ([19]; Escherichia coli, 25922, sc): < 0.2 mg/kg; ED50 [20]: 0.3 mg/kg
Cc1cc(SCC2=C(C(=O)O)N3C(=O)[C@@H](NC(=O)/C(=N\OCc4nc(=O)c(O)c[nH]4)c4csc(N)n4)[C@H]3SC2)n2nc(CNS(=O)(=O)c3ccc(O)c(O)c3)nc2n1 [Example 2, (6R,7R)-7-[(Z)-2-(2-amino-4-thiazolyl)-2-[[(1,4-dihydro-5-hydroxy-4-oxo-2-pyrimidinyl)methoxy]imino]acetamido]-3-[[[2-[(3,4-dihydroxybenzenesulphonamido)methyl]-5-methyl-s-triazolo[1,5-a]pyrimidinyl-7-yl]thio]methyl]-8-oxo-5-thia-1-azabicyclo[4.2.0]oct-2-ene-2-carboxylic acid sodium salt (1:1)]	2 µg/mL	< 0.25 µg/mL	< 0.1 µg/mL	0.5 µg/mL	0.5 µg/mL	< 0.1 µg/mL	< 0.1 µg/mL	0.25 µg/mL	16 µg/mL	32 µg/mL	< 0.25 µg/mL	0.12 µg/mL	< 0.1 µg/mL	1 µg/mL	0.25 µg/mL	4 µg/mL	< 0.1 µg/mL	4 µg/mL	0.3 mg/kg	–	–
CC(C)(O/N=C(\C(=O)N[C@@H]1C(=O)N2C(C(=O)O)=C(CSc3nc(-c4ccccc4)ncc3-c3ccc(O)c(O)c3)CS[C@H]12)c1csc(N)n1)C(=O)NNC(=O)c1ccc(O)c(O)c1 [Example 46, (6R,7R)-7-[(Z)-2-(2-amino-4-thiazolyl)-2-[[1-[3-(3,4-dihydroxybenzoyl)carbazoyl]-1-methylethoxy]imino]acetamido]-3-[[[5-(3,4-dihydroxyphenyl)-2-phenyl-4-pyrimidinyl]thio]methyl]-8-oxo-5-thia-1-azabicyclo[4.2.0]oct-2-ene-2-carboxylic acid]	4 µg/mL (≈ 4.38 µM)	0.25 µg/mL (≈ 0.274 µM)	0.5 µg/mL (≈ 0.547 µM)	0.5 µg/mL (≈ 0.547 µM)	0.25 µg/mL (≈ 0.274 µM)	0.12 µg/mL (≈ 0.131 µM)	0.5 µg/mL (≈ 0.547 µM)	0.25 µg/mL (≈ 0.274 µM)	16 µg/mL (≈ 17.5 µM)	> 32 µg/mL	4 µg/mL (≈ 4.38 µM)	0.25 µg/mL (≈ 0.274 µM)	< 0.1 µg/mL	1 µg/mL (≈ 1.09 µM)	2 µg/mL (≈ 2.19 µM)	2 µg/mL (≈ 2.19 µM)	0.25 µg/mL (≈ 0.274 µM)	16 µg/mL (≈ 17.5 µM)	< 0.5 mg/kg	–	–
